In US20240262825A1, “PAIN TREATING COMPOUNDS AND USES THEREOF” (BIONOMICS LIMITED, priority 2018, published 2024):

What follows are compounds tested against T1, hNav1.7 (Homo sapiens, UniProt Q15858) (assay: hNav1.7 inactivated state (SIS) automated patch clamp electrophysiology). Conditions: Assay Conc. 10 uM; inactivated state protocol, HEK cells, whole-cell Patchliner.
T1 construct: expressed in transfected cells
Assay type: cell-based
Experimental: hNav1.7, hNav1.2, hNav1.3, hNav1.4, hNav1.5, hNav1.6 were stably expressed in human embryonic kidney cells and kept under constant antibiotic selection. For in vitro assays, cells were maintained in appropriate growth medium at 37° C. and 5% CO2 in a humidified incubator.
Nav1.x expressing cells plated in T-25 flasks for 2-3 days prior to use and grown to 70-85% confluence were briefly trypsinized to obtain a single cell suspension of ˜2-3×10^6 cells/ml. All electrophysiological recordings were performed at ambient temperature (21-23° C.) using automated patch clamp (Patchliner, Nanion Technologies GmbH) in the whole-cell configuration using the following solutions: Internal solution contained (in mM): CsCl (50), NaCl (10), CsF (60), EGTA (20), HEPES (10), pH 7.2 KOH, 285 mOsmol·Kg^−1. External (bath) solution contained (in mM): NaCl (140), KCl (4), MgCl2 (1), CaCl2 (2) D-Glucose monohydrate (5), HEPES (10), pH 7.4 NaOH, 298 mOsmol·kg^−1.
For each Nav1.x channel, a steady state inactivation curve was obtained in order to calculate the voltage resulting in 50% channel inactivation (V0.5inact). A 2 pulse protocol was then employed in which cells held at a voltage corresponding to 20 mV more negative to V0.5 inact were depolarised to −10 mV for 20 ms before returning to the previous holding voltage. This test pulse constituted P1 and represents 100% available (non-inactivated) Nav1.x channels. The same cell was then depolarised for 8 s to a voltage corresponding to 7 mV more positive than V0.5inact in order to cause channel inactivation. Following a brief (2 ms) hyperpolarising voltage step to −120 mV (to reset the activation gate), cells were again subjected to a depolarising test pulse (P2) to −10 mV for 20 ms before returning to the holding potential. Each sequence was repeated 6×at 30 s intervals. Using this protocol, control P2 current amplitudes (representing the % channels available following 8 s inactivation) was ˜50% of control P1 current amplitude. 6 repetitions of this recording sequence were made in the control bath solution and then again 2 minutes after compound addition and thereafter at increasing compound concentrations. % inhibition was calculated by (1−(P2drug at repetition 6/P2control at repetition 6))*100. Data were either presented as % block by a single concentration of drug or an estimated eIC50 determined from 2-3 drug concentrations which was determined by fitting data with a sigmoidal dose response curve (variable slope) using GraphPad Prism software (Version 6.0).
All compounds were dissolved in DMSO to 20 mM initially. Subsequent dilutions in DMSO were made to achieve 200×final bath concentrations. DMSO compound stocks were finally diluted 1/200 in bath solution just prior to assay resulting in a final DMSO concentration of 0.5% which was not found to affect control current amplitude.

T1 sequence (Q15858 whole entry): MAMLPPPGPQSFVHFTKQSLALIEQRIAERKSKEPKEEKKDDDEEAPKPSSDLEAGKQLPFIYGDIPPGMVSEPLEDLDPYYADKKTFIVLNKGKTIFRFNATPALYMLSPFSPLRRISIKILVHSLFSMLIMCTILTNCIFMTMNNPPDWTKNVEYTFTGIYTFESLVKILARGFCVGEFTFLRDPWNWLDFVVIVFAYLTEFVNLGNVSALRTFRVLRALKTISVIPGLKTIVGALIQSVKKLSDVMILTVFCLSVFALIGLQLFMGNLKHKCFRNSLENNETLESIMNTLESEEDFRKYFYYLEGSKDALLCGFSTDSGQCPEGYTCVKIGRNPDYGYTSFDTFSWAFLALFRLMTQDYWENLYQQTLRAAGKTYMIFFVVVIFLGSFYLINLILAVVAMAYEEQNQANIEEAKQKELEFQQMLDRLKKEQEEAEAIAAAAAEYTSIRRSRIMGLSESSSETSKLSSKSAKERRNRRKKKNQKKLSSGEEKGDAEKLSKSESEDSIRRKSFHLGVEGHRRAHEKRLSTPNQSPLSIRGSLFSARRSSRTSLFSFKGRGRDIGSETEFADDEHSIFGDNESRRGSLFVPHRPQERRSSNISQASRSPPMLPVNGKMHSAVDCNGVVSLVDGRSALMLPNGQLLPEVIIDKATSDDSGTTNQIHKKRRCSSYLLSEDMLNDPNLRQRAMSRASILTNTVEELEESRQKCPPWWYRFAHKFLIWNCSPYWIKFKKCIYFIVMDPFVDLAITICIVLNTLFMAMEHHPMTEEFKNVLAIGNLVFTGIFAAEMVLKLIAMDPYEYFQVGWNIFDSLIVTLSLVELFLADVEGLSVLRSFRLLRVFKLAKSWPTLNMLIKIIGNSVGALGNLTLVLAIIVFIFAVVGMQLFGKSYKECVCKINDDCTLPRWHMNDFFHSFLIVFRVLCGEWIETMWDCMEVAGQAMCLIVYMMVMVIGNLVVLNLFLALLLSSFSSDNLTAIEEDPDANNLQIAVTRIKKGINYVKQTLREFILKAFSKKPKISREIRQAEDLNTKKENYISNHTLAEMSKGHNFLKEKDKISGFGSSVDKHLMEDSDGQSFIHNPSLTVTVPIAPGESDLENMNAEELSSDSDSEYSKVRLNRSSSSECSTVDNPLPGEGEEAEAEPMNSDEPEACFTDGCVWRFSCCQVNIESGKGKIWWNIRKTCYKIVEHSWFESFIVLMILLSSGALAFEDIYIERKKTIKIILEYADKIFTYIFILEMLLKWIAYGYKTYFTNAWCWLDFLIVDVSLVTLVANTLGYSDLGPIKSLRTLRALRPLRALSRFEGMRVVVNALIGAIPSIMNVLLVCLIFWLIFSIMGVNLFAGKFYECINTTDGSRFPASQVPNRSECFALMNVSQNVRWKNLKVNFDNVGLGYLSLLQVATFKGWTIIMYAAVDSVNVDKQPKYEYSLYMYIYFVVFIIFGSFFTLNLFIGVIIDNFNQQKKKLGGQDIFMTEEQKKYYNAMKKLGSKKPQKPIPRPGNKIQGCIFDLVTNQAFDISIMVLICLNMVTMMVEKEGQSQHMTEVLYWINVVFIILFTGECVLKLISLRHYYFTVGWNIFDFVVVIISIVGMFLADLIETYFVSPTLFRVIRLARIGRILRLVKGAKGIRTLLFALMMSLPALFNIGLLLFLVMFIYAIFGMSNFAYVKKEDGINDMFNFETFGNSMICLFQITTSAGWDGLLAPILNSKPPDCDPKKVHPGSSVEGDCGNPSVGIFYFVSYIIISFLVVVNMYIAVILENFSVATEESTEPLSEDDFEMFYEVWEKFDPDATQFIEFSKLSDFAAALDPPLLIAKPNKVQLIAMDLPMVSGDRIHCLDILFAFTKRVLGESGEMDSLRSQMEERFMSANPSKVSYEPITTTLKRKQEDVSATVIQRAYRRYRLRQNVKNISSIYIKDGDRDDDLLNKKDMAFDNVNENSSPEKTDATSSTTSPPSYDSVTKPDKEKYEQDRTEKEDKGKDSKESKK

hNav1.7 SIS (% inh) | Structure (SMILES)
71% | O=C(NCc1ccc(OCc2ccccc2F)cc1)c1cn2ccccc2n1 [Compound 25]

Same assay, conditions: HEK293, Assay Conc. 3 uM; inactivated state protocol, HEK cells, whole-cell Patchliner; read-out: hNav1.7 SIS (% inh)

inhibition at 3 µM | Structure (SMILES)
61% | O=C(NCc1ccc(OCc2ccccc2F)cc1)c1csc(C(F)(F)F)n1 [Compound 23]

Same assay, conditions: HEK293, Assay Conc. 10 uM; inactivated state protocol, HEK cells, whole-cell Patchliner; read-out: hNav1.7 SIS (% inh)

Structure (SMILES) | inhibition at 10 µM
O=C(NCc1ccc(OCc2ccccc2F)cc1)c1cccn2ncnc12 [Compound 14] | 49%
CN(Cc1ccc(OCc2ccccc2F)cc1)C(=O)c1cn2ccccc2n1 [Compound 27] | 92%
CN(Cc1ccc(OCc2ccccc2F)cc1)C(=O)c1csc(C(F)(F)F)n1 [Compound 4] | 36%
O=C(NCc1ccc(OCc2ccccc2F)cc1)c1ccc2cncn2c1 [Compound 46] | 34%
COc1ncc(C(=O)NCc2ccc(OCc3ccccc3F)cc2)cn1 [Compound 6] | 47%
CC(C)(Oc1ccc(CNC(=O)c2cccn3cnnc23)cc1)c1ccccc1F [Compound 7] | 35%
O=C(NCc1ccc(OCC2CCCC2)cc1)c1ccn2ccnc2c1 [Compound 52] | 45%
COC[C@H](C)N(Cc1ccc(OCc2ccccc2F)cc1)C(=O)c1cn2ccccc2n1 [Compound 24] | 63%
O=C(NCc1ccc(OCc2ccccc2F)cn1)c1cccn2cnnc12 [Compound 20] | 36%
O=C(NCc1ccc(OCc2ccccc2F)cc1)c1nnc(C2CC2)o1 [Compound 9] | 35%
O=C(NCc1ccc(OCc2ccccc2F)cc1)c1ccn2cncc2c1 [Compound 18] | 50%
O=C(NCc1ccc(OCc2ccccc2F)cc1)c1ccn2ncnc2c1 [Compound 15] | 51%
O=C(NCc1ccc(OCc2ccccc2F)cc1)c1ccn2cnnc2c1 [Compound 10] | 30%

More lines, now with the values ahead:

inhibition at 10 µM | Structure (SMILES)
35% | Cn1ccc(C(=O)NCc2ccc(OCc3ccccc3F)cc2)cc1=O [Compound 12]
39% | Cc1nc(C(=O)NCc2ccc(OCc3ccccc3F)cc2)cs1 [Compound 5]
52% | O=C(NCc1ccc(OCc2ccccc2F)cc1)c1cscn1 [Compound 21]
32% | COc1ncccc1C(=O)NCc1ccc(OCc2ccccc2F)cc1 [Compound 17]
34% | O=C(NCc1ccc(OCc2ccccc2F)cc1)c1cn[nH]c1 [Compound 3]
41% | O=C(NCc1ccc(OCc2ccccc2F)cc1)c1cccnc1 [Compound 1]
44% | Cc1n[nH]c(C(=O)NCc2ccc(OCc3ccccc3F)cc2)n1 [Compound 8]
59% | Cc1cnc(C(=O)NCc2ccc(OCc3ccccc3F)cc2)cn1 [Compound 22]
48% | O=C(NCc1ccc(OCc2ccccc2F)cc1)c1cc2cccn2cn1 [Compound 2]
42% | O=C(NCc1ccc(OCc2ccccc2F)cc1)c1cccc2ncnn12 [Compound 13]
32% | Cn1cccc(C(=O)NCc2ccc(OCc3ccccc3F)cc2)c1=O [Compound 16]
35% | O=C(NCc1ccc(OCc2ccccc2F)cc1)c1cccc2cncn12 [Compound 19]
56% | O=C(NCc1ccc(OCc2ccccc2F)cc1)c1cn2ccccc2n1 [Compound 53]
34% | O=C(NCc1ccc(OCc2ccccc2F)cc1)c1cc[nH]c(=O)c1 [Compound 11]

Same assay, conditions: estimated eIC50 from 2-3 drug concentrations; inactivated state protocol

Structure (SMILES) | IC50
CN(Cc1ccc(OCc2ccccc2F)cc1)C(=O)c1cn2ccccc2n1 [Compound 27] | 4.3 µM
O=C(NCc1ccc(OCc2ccccc2F)cc1)c1nccn2ccnc12 [Compound 31] | 3.2 µM
O=C(NCc1ccc(OCC2CCCCC2)cc1)c1cn2ccccc2n1 [Compound 50] | 3.2 µM
COC[C@@H](C)N(Cc1ccc(OCc2ccccc2F)cc1)C(=O)c1cn2ccccc2n1 [Compound 44] | 6.3 µM
O=C(NCc1ccc(OCC2CCCC2)cc1)c1cccn2cnnc12 [Compound 51] | 0.98 µM
O=C(NCc1ccc(OCc2ccccc2F)cc1)c1cccn2nnnc12 [Compound 30] | 7.5 µM
O=C(NCc1ccc(OCC2CCCCC2)cc1)c1ccn2ccnc2c1 [Compound 48] | 5.7 µM
O=C(NCc1ccc(OCc2ccccc2F)cc1)c1cccn2cncc12 [Compound 45] | 7.6 µM
COC[C@H](C)N(Cc1ccc(OCc2ccccc2F)cc1)C(=O)c1cn2ccccc2n1 [Compound 24] | 7.2 µM
Cn1cnc(C(=O)NCc2ccc(OCc3ccccc3F)cc2)n1 [Compound 32] | 5.9 µM
O=C(NCc1ccc(OCc2ccccc2F)cc1)c1cccn2ccnc12 [Compound 40] | 3.5 µM
O=C(NCc1ccc(OCC2CCCCC2)cc1)c1cccn2cnnc12 [Compound 49] | 2.5 µM
O=C(NCc1ccc(OCC2CCCCC2)cc1)c1ccc2cncn2c1 [Compound 47] | 3.6 µM
CC(C)(Oc1ccc(CNC(=O)c2ccn3ccnc3c2)cc1)c1ccccc1F [Compound 29] | 6.5 µM
O=C(NCc1ccc(OCc2ccccc2F)cc1)c1ccn2ccnc2c1 [Compound 26] | 5.2 µM
O=C(NCc1ccc(OCc2ccccc2F)cc1)c1nc(C(F)(F)F)cs1 [Compound 33] | 7.5 µM
CC(C)(Oc1ccc(CNC(=O)c2cccn3ccnc23)cc1)c1ccccc1F [Compound 28] | 2.6 µM

The remaining lines, values ahead:

IC50 | Structure (SMILES)
5.7 µM | O=C(NCc1ccc(OCc2ccccc2F)cc1)c1cn2ccccc2n1 [Compound 25]
5.6 µM | Cc1cccc(C(=O)NCc2ccc(OCc3ccccc3F)cc2)n1 [Compound 36]
8.6 µM | Cc1nc(C(=O)NCc2ccc(OCc3ccccc3F)cc2)cn1C [Compound 43]
3.2 µM | O=C(NCc1ccc(OCc2ccccc2F)cc1)c1cccc2ccnn12 [Compound 38]
1.9 µM | O=C(NCc1ccc(OCc2ccccc2F)cc1)c1csc(C(F)(F)F)n1 [Compound 23]
5.5 µM | Cc1nc(C(=O)NCc2ccc(OCc3ccccc3F)cc2)sc1C [Compound 35]
8.9 µM | O=C(NCc1ccc(OCc2ccccc2F)cc1)c1cnc2ccccn12 [Compound 37]
4.1 µM | O=C(NCc1ccc(OCc2ccccc2F)cc1)c1cccn2cnnc12 [Compound 39]
6.2 µM | CC(C)c1cc(C(=O)NCc2ccc(OCc3ccccc3F)cc2)n[nH]1 [Compound 42]
9.4 µM | Cc1csc(C(=O)NCc2ccc(OCc3ccccc3F)cc2)n1 [Compound 34]
8.9 µM | Cc1cc(C(=O)NCc2ccc(OCc3ccccc3F)cc2)n(C)n1 [Compound 41]
